For one experiment, the system named is BGC-823. Description: Cytotoxicity against human BGC823 cells at 10 uM after 96 hrs by MTT assay. Type of experiment: functional, cell-based. A general note: Tetrazolium dyes change colour on reduction, which living cells bring about.
A further experiment has as its system HCT-8. Briefly: Cytotoxicity against human HCT8 cells at 10 uM after 96 hrs by MTT assay. Type of experiment: functional, cell-based.
A short description of experiment [1]: Antiinflammatory activity in rat polymorphonuclear leukocytes assessed as inhibition of PAF-induced release of glucuronidase at 10 uM. Type of experiment: functional.
The next experiment deals with Bel-7402. Briefly: Cytotoxicity against human Bel7402 cells at 10 uM after 96 hrs by MTT assay. Type of experiment: functional, cell-based.
The subject of experiment [2] is Human immunodeficiency virus 1. Description: Antiviral activity against HIV1 infected in human 293T cells expressing VSV-G assessed as inhibition of viral p24 production at 10 uM after 48 hrs by ELISA. The format is functional, organism-based. In general terms: In an ELISA, binding on a coated surface is turned into a signal by an enzyme label.
A further experiment has as its system MCF7. Description: Cytotoxicity against human MCF7 cells at 10 uM after 96 hrs by MTT assay. The format is functional, cell-based.
A further experiment has as its system KETR3. Briefly: Cytotoxicity against human Ketr3 cells at 10 uM after 96 hrs by MTT assay. The format is functional, cell-based.
A further experiment relates to A549. Description: Cytotoxicity against human A549 cells at 10 uM after 96 hrs by MTT assay. The format is functional, cell-based.

From ChEMBL document CHEMBL3091360, “Homosecoiridoid alkaloids with amino acid units from the flower buds of Lonicera japonica” (J Nat Prod, 2013) come the findings set out here.

A word on the inhibition: it is the drop in the measured response relative to a control, in per cent.

Each structure is given as a SMILES string. The source made the active and inactive calls. The rule behind the calls is not given here.

On to `COc1cc(C(=O)O)ccc1O[C@@H]1O[C@H](COC(=O)c2ccccc2)[C@@H](O)[C@H](O)[C@H]1O`, for which the result with BGC-823, in the experiment on HCT-8, with Bel-7402, in the experiment on MCF7, in the experiment with KETR3 and in the experiment with A549 was inactive. The inhibition at 10 µM in experiment [1] is less than 30%. In addition, the inhibition result in experiment [2] is “inactive”.
Turning to `C=C[C@H]1[C@H](O[C@@H]2O[C@H](CO)[C@@H](O)[C@H](O)[C@H]2O)OC=C(C(=O)[O-])[C@H]1/C=C\c1ccc[n+]([C@H](Cc2ccccc2)C(=O)O)c1`, the outcome with BGC-823, with HCT-8, in the experiment on Bel-7402, in the experiment with MCF7, in the experiment on KETR3 and with A549 was inactive. For the same compound, in experiment [1], the inhibition at 10 µM is less than 30%. In addition, the inhibition result in experiment [2] was “inactive”.
`O=C(OCc1ccccc1)c1c(O)cccc1O[C@@H]1O[C@H](CO)[C@@H](O)[C@H](O)[C@H]1O`: the outcome in the experiment on BGC-823, in the experiment with HCT-8, in the experiment on Bel-7402, with MCF7, with KETR3 and in the experiment with A549 was inactive. The inhibition at 10 µM in experiment [1] was less than 30%. Further, the inhibition result in experiment [2] was “inactive”.
Take `C=C[C@H]1[C@H](O[C@@H]2O[C@H](CO)[C@@H](O)[C@H](O)[C@H]2O)OC=C(C(=O)OC)[C@H]1/C=C/c1ccc[n+]([C@@H](C)C(=O)[O-])c1`: the result in the experiment on BGC-823, with HCT-8, with Bel-7402, in the experiment with MCF7, in the experiment with KETR3 and in the experiment with A549 was inactive. In addition, the inhibition at 10 µM in experiment [1] amounted to 72.3%. The inhibition result in experiment [2] is “inactive”.
Take `O=C(/C=C/c1ccc(O)c(O)c1)O[C@@H]1C[C@](O)(C(=O)O)C[C@@H](O)[C@H]1O` [CHLOROGENIC ACID]: the result with BGC-823, in the experiment on HCT-8, with Bel-7402, in the experiment with MCF7, in the experiment on KETR3 and with A549 was inactive. In addition, the inhibition at 10 µM in experiment [1] was less than 30%. The inhibition entry in experiment [2] is “inactive”.
As to `O=C(O)c1ccc(O)c(O)c1` [PROTOCATECHUIC ACID], the result in the experiment on BGC-823, in the experiment on HCT-8, in the experiment with Bel-7402, in the experiment with MCF7, in the experiment on KETR3 and in the experiment with A549 was inactive. For the same compound, the inhibition at 10 µM in experiment [1] is less than 30%. In addition, the inhibition result in experiment [2] is “inactive”.
As for `C=C[C@H]1[C@H](O[C@@H]2O[C@H](CO)[C@@H](O)[C@H](O)[C@H]2O)OC=C(C(N)=O)[C@H]1/C=C/c1ccc[n+]([C@@H](CCC(=O)O)C(=O)[O-])c1`, the result with BGC-823, with HCT-8, in the experiment on Bel-7402, in the experiment on MCF7, with KETR3 and in the experiment on A549 was inactive. In addition, the inhibition at 10 µM in experiment [1] is less than 30%. Also, the inhibition result in experiment [2] was “inactive”.
With `C=C[C@H]1[C@H](O[C@@H]2O[C@H](CO)[C@@H](O)[C@H](O)[C@H]2O)OC=C(C(=O)OC)[C@H]1CC(=O)OC`, the result in the experiment with BGC-823, with HCT-8, in the experiment on Bel-7402, in the experiment with MCF7, in the experiment on KETR3 and with A549 was inactive. Also, the inhibition at 10 µM in experiment [1] was less than 30%. The inhibition entry in experiment [2] is “inactive”.
`Nc1ncnc2c1ncn2[C@@H]1O[C@H](CO)[C@@H](O)[C@H]1O` [ADENOSINE]: the outcome in the experiment on BGC-823, in the experiment with HCT-8, with Bel-7402, in the experiment with MCF7, with KETR3 and with A549 was inactive. Moreover, the inhibition at 10 µM in experiment [1] is less than 30%. Further, in experiment [2], the inhibition result is “inactive”.
Turning to `C[C@@H]1C(=O)O[C@H]2[C@H](O)[C@@]34[C@H]5C[C@@H](C(C)(C)C)[C@]36[C@@H](OC(=O)[C@@H]6O)O[C@@]4(C(=O)O5)[C@@]12O` [GINKOLIDE B], the outcome with BGC-823, in the experiment with HCT-8, with Bel-7402, in the experiment with MCF7, in the experiment with KETR3 and in the experiment on A549 was inactive. Moreover, in experiment [1], the inhibition at 10 µM came out at 78%. In experiment [2], the inhibition entry is “inactive”.
As for `O=C(/C=C/c1ccc(O)c(O)c1)O[C@H]1[C@H](O)C[C@@](O)(C(=O)O)C[C@H]1O`, the outcome in the experiment on BGC-823, with HCT-8, in the experiment on Bel-7402, with MCF7, with KETR3 and in the experiment with A549 was inactive. Besides, the inhibition at 10 µM in experiment [1] is less than 30%. Further, in experiment [2], the inhibition result was “inactive”.
Regarding `C=C[C@H]1[C@H](O[C@@H]2O[C@H](CO)[C@@H](O)[C@H](O)[C@H]2O)OC=C(C(=O)OC)[C@H]1/C=C/c1cc(C(=O)O)c[n+]([C@H](C(=O)[O-])C(C)C)c1`, the outcome in the experiment with BGC-823, in the experiment with HCT-8, in the experiment on Bel-7402, with MCF7, with KETR3 and in the experiment with A549 was inactive. Also, in experiment [1], the inhibition at 10 µM was less than 30%. The inhibition entry in experiment [2] is “inactive”.
Regarding `C=C[C@H]1[C@H](O[C@@H]2O[C@H](CO)[C@@H](O)[C@H](O)[C@H]2O)OC=C(C(=O)OC)[C@H]1/C=C/CC(=O)OC`, the outcome in the experiment with BGC-823, in the experiment on HCT-8, with Bel-7402, with MCF7, in the experiment with KETR3 and with A549 was inactive. The inhibition at 10 µM in experiment [1] is less than 30%. In addition, the inhibition entry in experiment [2] was “inactive”.
As to `COC(=O)[C@]1(O)C[C@@H](O)[C@@H](O)[C@H](OC(=O)/C=C/c2ccc(O)c(O)c2)C1` [CHLOROGENIC ACID METHYL ESTER], the outcome with BGC-823, in the experiment on HCT-8, in the experiment with Bel-7402, with MCF7, in the experiment with KETR3 and with A549 was inactive. In addition, the inhibition at 10 µM in experiment [1] is less than 30%. Further, in experiment [2], the inhibition entry was “inactive”.
Take `C=C[C@H]1[C@H](O[C@@H]2O[C@H](CO)[C@@H](O)[C@H](O)[C@H]2O)OC=C(C(=O)[O-])[C@H]1/C=C/c1cc(C(=O)O)c[n+]([C@H](C(=O)O)[C@@H](C)CC)c1`: the result in the experiment on BGC-823, in the experiment on HCT-8, with Bel-7402, in the experiment on MCF7, with KETR3 and in the experiment on A549 was inactive. For the same compound, in experiment [1], the inhibition at 10 µM was less than 30%. Also, in experiment [2], the inhibition result is “inactive”.
For the compound `COc1cc(/C=C/CO)cc(OC)c1O[C@@H]1O[C@H](CO)[C@@H](O)[C@H](O)[C@H]1O` [SYRINGIN], the result in the experiment on BGC-823, with HCT-8, with Bel-7402, in the experiment on MCF7, in the experiment on KETR3 and with A549 was inactive. In experiment [1], the inhibition at 10 µM is less than 30%. Also, the inhibition entry in experiment [2] was “inactive”.
Turning to `COC(=O)C1=CO[C@@H](O[C@@H]2O[C@H](CO)[C@@H](O)[C@H](O)[C@H]2O)[C@H]2[C@@H]1CC(=O)[C@@H]2C`, the outcome in the experiment on BGC-823, with HCT-8, in the experiment with Bel-7402, in the experiment on MCF7, with KETR3 and with A549 was inactive. The inhibition at 10 µM in experiment [1] was less than 30%. In addition, the inhibition result in experiment [2] is “inactive”.
Consider `O=C(/C=C/c1ccc(O)c(O)c1)O[C@@H]1C[C@@](O)(C(=O)O)C[C@@H](O)[C@H]1O`, for which the result in the experiment on BGC-823, with HCT-8, with Bel-7402, in the experiment on MCF7, in the experiment with KETR3 and with A549 was inactive. Further, in experiment [1], the inhibition at 10 µM was less than 30%. The inhibition result in experiment [2] is “inactive”.
Regarding `O=C(O)/C=C/c1ccc(O[C@@H]2O[C@H](CO)[C@@H](O)[C@H](O)[C@H]2O)c(O)c1`, the result with BGC-823, with HCT-8, in the experiment with Bel-7402, with MCF7, in the experiment with KETR3 and in the experiment with A549 was inactive. In addition, in experiment [1], the inhibition at 10 µM was less than 30%. Further, in experiment [2], the inhibition result was “inactive”.
